Test results: patent US20210379066A1, “COMBINATIONS OF POSITIVE ALLOSTERIC MODULATORS AND NICOTINIC ACETYLCHOLINE RECEPTOR AGONISTS FOR TREATING OCULAR CONDITIONS” (Oyster Point Pharma, Inc., priority 2018, published 2021)
“Also recorded” adds a separate entry of the source. Read-outs that look alike come from different tables or passages of the source. Blank lines part the entries; values can stand above or below the compound they belong to.

Assays:
Type in all cases: cell-based
human alpha4beta2 nAChRs [1] = target: T1, human alpha4beta2 nAChRs (Homo sapiens, UniProt P17787+P43681); test: Antagonistic activity / desensitization, cumulative exposure in the low concentration range (Example 2); conditions: nanomolar range, up to 300 nM; dihydrate
T1 construct: expressed in transfected cells; host or cells: Xenopus laevis oocytes (cDNA injection)
T1 sequence (P43681 29-627 limits assumed): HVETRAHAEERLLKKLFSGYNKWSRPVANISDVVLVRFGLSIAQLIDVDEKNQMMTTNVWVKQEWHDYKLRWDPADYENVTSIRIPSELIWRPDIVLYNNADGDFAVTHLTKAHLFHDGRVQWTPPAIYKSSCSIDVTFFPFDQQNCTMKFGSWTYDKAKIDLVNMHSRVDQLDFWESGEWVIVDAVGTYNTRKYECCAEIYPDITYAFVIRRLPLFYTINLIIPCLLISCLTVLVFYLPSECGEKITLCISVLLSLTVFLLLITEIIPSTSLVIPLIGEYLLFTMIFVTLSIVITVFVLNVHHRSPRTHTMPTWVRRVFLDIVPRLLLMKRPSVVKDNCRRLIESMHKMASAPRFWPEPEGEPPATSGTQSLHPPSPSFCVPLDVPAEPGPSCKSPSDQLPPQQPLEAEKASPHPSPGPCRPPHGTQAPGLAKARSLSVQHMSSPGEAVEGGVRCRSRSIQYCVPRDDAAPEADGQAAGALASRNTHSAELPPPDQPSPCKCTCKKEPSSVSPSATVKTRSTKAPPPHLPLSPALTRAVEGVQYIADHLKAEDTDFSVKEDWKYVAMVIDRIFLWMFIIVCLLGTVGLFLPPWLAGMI
T1 sequence (P17787 26-502): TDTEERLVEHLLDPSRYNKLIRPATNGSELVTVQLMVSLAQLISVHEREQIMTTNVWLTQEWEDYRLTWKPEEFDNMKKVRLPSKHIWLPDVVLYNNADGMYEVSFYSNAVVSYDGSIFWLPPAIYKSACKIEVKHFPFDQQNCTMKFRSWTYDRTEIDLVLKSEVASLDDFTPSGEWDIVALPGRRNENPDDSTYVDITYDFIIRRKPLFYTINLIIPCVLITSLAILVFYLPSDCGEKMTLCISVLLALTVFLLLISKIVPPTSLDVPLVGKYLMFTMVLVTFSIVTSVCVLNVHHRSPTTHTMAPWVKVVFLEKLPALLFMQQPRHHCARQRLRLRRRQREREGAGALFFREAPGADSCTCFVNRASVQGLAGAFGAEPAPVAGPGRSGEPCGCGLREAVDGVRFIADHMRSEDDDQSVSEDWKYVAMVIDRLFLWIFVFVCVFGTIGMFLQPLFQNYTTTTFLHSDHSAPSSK

[2] = target: T2, human alpha3alpha5beta4 nAChRs (Homo sapiens, UniProt P30532+P30926+P32297); test: as above; conditions: nanomolar range, up to 300 nM; dihydrate
T2 construct: expressed in transfected cells; host or cells: Xenopus laevis oocytes (cDNA injection)
T2 sequence (P32297 32-505): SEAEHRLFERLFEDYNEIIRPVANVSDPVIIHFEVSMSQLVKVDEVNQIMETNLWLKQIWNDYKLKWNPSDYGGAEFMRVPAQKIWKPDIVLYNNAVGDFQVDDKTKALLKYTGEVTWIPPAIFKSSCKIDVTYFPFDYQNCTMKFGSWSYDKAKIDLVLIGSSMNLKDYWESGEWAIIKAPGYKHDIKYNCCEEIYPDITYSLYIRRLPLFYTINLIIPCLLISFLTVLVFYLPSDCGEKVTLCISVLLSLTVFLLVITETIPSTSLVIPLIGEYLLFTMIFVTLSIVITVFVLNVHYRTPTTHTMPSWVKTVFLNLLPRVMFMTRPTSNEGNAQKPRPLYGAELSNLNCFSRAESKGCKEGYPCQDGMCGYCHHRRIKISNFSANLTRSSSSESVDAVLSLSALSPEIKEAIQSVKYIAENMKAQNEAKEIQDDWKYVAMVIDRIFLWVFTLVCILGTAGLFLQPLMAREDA
T2 sequence (P30532 23-468): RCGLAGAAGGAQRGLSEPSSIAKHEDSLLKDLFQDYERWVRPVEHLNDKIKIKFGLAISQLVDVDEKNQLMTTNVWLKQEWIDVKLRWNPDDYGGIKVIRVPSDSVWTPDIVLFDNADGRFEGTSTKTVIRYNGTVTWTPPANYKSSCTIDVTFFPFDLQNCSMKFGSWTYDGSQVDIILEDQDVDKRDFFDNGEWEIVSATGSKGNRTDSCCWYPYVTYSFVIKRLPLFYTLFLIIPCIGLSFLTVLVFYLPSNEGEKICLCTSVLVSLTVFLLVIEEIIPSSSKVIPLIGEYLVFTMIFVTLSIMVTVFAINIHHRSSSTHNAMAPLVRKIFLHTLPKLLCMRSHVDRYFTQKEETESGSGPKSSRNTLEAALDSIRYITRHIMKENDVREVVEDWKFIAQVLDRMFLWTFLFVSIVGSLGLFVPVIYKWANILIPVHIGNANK
T2 sequence (P30926 22-498): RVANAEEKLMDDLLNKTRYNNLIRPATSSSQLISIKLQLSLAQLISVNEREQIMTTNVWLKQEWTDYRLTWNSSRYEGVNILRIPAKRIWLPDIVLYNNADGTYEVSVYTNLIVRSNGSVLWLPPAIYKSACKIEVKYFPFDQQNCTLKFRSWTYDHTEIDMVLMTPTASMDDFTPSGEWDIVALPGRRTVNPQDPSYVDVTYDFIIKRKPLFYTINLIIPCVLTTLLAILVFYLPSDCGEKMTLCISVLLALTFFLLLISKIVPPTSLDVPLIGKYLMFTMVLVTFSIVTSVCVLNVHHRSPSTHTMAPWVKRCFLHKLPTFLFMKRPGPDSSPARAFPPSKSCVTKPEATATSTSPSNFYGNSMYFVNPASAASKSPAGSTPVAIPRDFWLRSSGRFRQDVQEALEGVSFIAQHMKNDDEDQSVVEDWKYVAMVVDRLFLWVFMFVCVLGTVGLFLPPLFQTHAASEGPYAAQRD

human alpha4beta2 nAChRs [3] = target: T1, human alpha4beta2 nAChRs; test: Desensitization by sustained (1 hour) agonist exposure and recovery, without and with PAM, Xenopus oocytes (Example 1); conditions: no PAM; for desensitization / inhibition of the response by sustained agonist exposure: 1 hour exposure, 1 mM compound 1 hemi-galactarate dihydrate or 300 μM varenicline tartrate; for recovery of the response after wash: after 1 hour agonist exposure, 3 hours wash
human alpha7 nAChRs = target: T3, human alpha7 nAChRs (Homo sapiens, UniProt P36544); test: Antagonistic activity / desensitization, cumulative exposure in the low concentration range (Example 2); conditions: concentrations up to 300 nM; dihydrate
T3 construct: expressed in transfected cells; host or cells: Xenopus laevis oocytes (cDNA injection)
T3 sequence (P36544 23-502): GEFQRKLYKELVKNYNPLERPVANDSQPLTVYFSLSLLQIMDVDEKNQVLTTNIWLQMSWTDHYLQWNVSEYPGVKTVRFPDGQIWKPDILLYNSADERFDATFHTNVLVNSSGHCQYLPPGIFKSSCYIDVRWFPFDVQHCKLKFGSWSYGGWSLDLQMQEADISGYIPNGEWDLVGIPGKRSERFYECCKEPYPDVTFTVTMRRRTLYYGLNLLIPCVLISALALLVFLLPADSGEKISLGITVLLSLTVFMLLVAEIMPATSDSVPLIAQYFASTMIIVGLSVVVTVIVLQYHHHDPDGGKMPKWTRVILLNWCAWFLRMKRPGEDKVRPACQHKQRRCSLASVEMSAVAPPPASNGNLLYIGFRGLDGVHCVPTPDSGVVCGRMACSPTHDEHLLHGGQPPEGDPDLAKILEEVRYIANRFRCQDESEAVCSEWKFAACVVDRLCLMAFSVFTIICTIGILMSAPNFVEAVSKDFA

[4] = target: T4, human nAChR alpha3alpha5beta4 (Homo sapiens, UniProt P30532+P30926+P32297); test: Agonist activity, two-electrode voltage clamp in Xenopus oocytes (Examples 2 and 5); conditions: for EC50: Example 2; for agonist character: versus ACh response
T4 construct: expressed in transfected cells; host or cells: Xenopus laevis oocytes (cDNA injection)
T4 sequence (P32297 32-505): as the sequence (P32297 32-505) above
T4 sequence (P30532 23-468): as the sequence (P30532 23-468) above
T4 sequence (P30926 22-498): as the sequence (P30926 22-498) above
Method: (§1) All experiments were carried out at human nAChRs expressed in Xenopus oocytes using the method of cDNA expression. Xenopus oocytes were prepared and injected using standard procedures.
(§2) Briefly, ovaries were harvested from Xenopus Laevis females that have been deeply anesthetized by cooling at 4° C. and Tricaine methanesulfonate (MS-222 at a concentration of 150 mg/L) in sodium bicarbonate (300 mg/L). Once anesthetized the animal was decapitated and pithed following the rules of animal rights from the Geneva canton. A small piece of ovary was isolated for immediate preparation while the remaining part was placed at 4° C. in a sterile Barth solution containing in mM NaCl 88, KCl 1, NaHCO32.4, HEPES 10, MgSO4.7H2O 0.82, Ca(NO3)2.4H2O 0.33, CaCl2.6H2O 0.41, at pH 7.4, and supplemented with 20 μg/ml of kanamycin, 100 unit/ml penicillin. All recordings were performed at 18° C. and cells superfused with OR2 medium containing in mM: NaCl 88, KCl 2.5, HEPES 5, CaCl2.2H2O 1.8, MgCl2.6H2O 1, pH 7.4.
(§3) Currents evoked by ACh or other agonists were recorded using an automated process equipped with standard two-electrode voltage-clamp configuration (TEVC). Data were captured and analyzed using a HiQScreen proprietary data acquisition and analysis software running under Matlab (Mathworks Inc.).
(§4) See Example 1. […] The test concentration of acetylcholine chloride was 1280 micromolar.
(§5) Injections of cDNAs encoding for the human alpha3beta4, alpha3alpha5beta4, alpha4beta2, and alpha7 were performed in at least 95 oocytes were performed using a proprietary automated injection and receptor expression examined at least two days later. Oocytes were poked with two electrodes and their membrane potential maintained, unless indicated, at −80 mV throughout the experiment.
(§6) A protocol to determine agonistic activity in the oocytes expressing the nAChRs was developed. The cells were exposed to a series of increasing concentrations of a compound agonist for 10 seconds each at two minute intervals. The current evoked from exposure to the agonist at each concentration was recorded. For oocytes expressing alpha7 nAChRs, exposure to the agonist was reduced to 5 seconds. This process was repeated for each agonist tested against each type of nAChR expressing cell.
(§7) To evaluate the agonistic properties of compound 1 hemi-galactarate dihydrate a protocol of brief exposures to a series of growing concentrations of compound 1 hemi-galactarate dihydrate was used.
(§8) Agonist Preparation: See Example 1. […] The test concentration of acetylcholine chloride was 1280 micromolar.
as §5, with “Experimental Procedures: Injections” for “Injections”, “alpha4beta2, alpha4alpha6beta2,” for “alpha4beta2,”, “oocytes” for “oocytes were performed”, “injection device. Cellular” for “injection and”, “expression was” for “expression”
as §6, with “developed. Oocytes expressing a nAChR subtype were exposed to a brief test pulse of acetylcholine (1280 micromolar) while the holding current and response was evaluated. Cells displaying robust currents were washed for 90 seconds.” for “developed.”, “were then” for “were”, “nAChR” for “compound”, “intervals. The nAChR agonist test concentrations were 0.1, 0.3, 1, 3, 10, 30, 100, 300 (micromolar).” for “intervals.”

human nAChR alpha4beta2 = target: T5, human nAChR alpha4beta2 (Homo sapiens, UniProt P17787+P43681); test: as above; conditions: for EC50: Example 2; for effect on the subsequent ACh-evoked current: after exposure to the agonist concentration series; for agonist character: versus ACh response
T5 construct: expressed in transfected cells; host or cells: Xenopus laevis oocytes (cDNA injection)
T5 sequence (P43681 29-627 limits assumed): as the sequence (P43681 29-627 limits assumed) above
T5 sequence (P17787 26-502): as the sequence (P17787 26-502) above
Method: as §1, §2, §3, §4, §5, §6, §7, §8
as §5, with “Experimental Procedures: Injections” for “Injections”, “alpha4beta2, alpha4alpha6beta2,” for “alpha4beta2,”, “oocytes” for “oocytes were performed”, “injection device. Cellular” for “injection and”, “expression was” for “expression”
as §6, with “developed. Oocytes expressing a nAChR subtype were exposed to a brief test pulse of acetylcholine (1280 micromolar) while the holding current and response was evaluated. Cells displaying robust currents were washed for 90 seconds.” for “developed.”, “were then” for “were”, “nAChR” for “compound”, “intervals. The nAChR agonist test concentrations were 0.1, 0.3, 1, 3, 10, 30, 100, 300 (micromolar).” for “intervals.”

human nAChR alpha7 = target: T6, human nAChR alpha7 (Homo sapiens, UniProt P36544); test: as above; conditions: for agonist character: versus ACh response
T6 construct: expressed in transfected cells; host or cells: Xenopus laevis oocytes (cDNA injection)
T6 sequence (P36544 23-502): as the sequence (P36544 23-502) above
Method: as §1, §2, §3, §4, §5, §6, §7, §8
as §5, with “Experimental Procedures: Injections” for “Injections”, “alpha4beta2, alpha4alpha6beta2,” for “alpha4beta2,”, “oocytes” for “oocytes were performed”, “injection device. Cellular” for “injection and”, “expression was” for “expression”
as §6, with “developed. Oocytes expressing a nAChR subtype were exposed to a brief test pulse of acetylcholine (1280 micromolar) while the holding current and response was evaluated. Cells displaying robust currents were washed for 90 seconds.” for “developed.”, “were then” for “were”, “nAChR” for “compound”, “intervals. The nAChR agonist test concentrations were 0.1, 0.3, 1, 3, 10, 30, 100, 300 (micromolar).” for “intervals.”

human nAChR alpha3beta4 = target: T7, human nAChR alpha3beta4 (Homo sapiens, UniProt P30926+P32297); test: as above; conditions: for agonist character: versus ACh response
T7 construct: expressed in transfected cells; host or cells: Xenopus laevis oocytes (cDNA injection)
T7 sequence (P32297 32-505): as the sequence (P32297 32-505) above
T7 sequence (P30926 22-498): as the sequence (P30926 22-498) above
Method: as §1, §2, §3, §4, §5, §6, §7, §8
as §5, with “Experimental Procedures: Injections” for “Injections”, “alpha4beta2, alpha4alpha6beta2,” for “alpha4beta2,”, “oocytes” for “oocytes were performed”, “injection device. Cellular” for “injection and”, “expression was” for “expression”
as §6, with “developed. Oocytes expressing a nAChR subtype were exposed to a brief test pulse of acetylcholine (1280 micromolar) while the holding current and response was evaluated. Cells displaying robust currents were washed for 90 seconds.” for “developed.”, “were then” for “were”, “nAChR” for “compound”, “intervals. The nAChR agonist test concentrations were 0.1, 0.3, 1, 3, 10, 30, 100, 300 (micromolar).” for “intervals.”

human alpha3beta4 nAChRs [5] = target: T8, human alpha3beta4 nAChRs (Homo sapiens, UniProt P30926+P32297); test: Antagonistic activity / desensitization, cumulative exposure in the low concentration range (Example 2); conditions: concentrations up to 300 nM
T8 construct: expressed in transfected cells; host or cells: Xenopus laevis oocytes (cDNA injection)
T8 sequence (P32297 32-505): as the sequence (P32297 32-505) above
T8 sequence (P30926 22-498): as the sequence (P30926 22-498) above

human alpha4beta2 nAChRs [6] = target: T1, human alpha4beta2 nAChRs; test: Sustained exposure to 300 μM varenicline tartrate and its recovery (Example 2); conditions: 36 minutes wash
human alpha3beta4 nAChRs [7] = target: T8, human alpha3beta4 nAChRs; test: as above
[8] = listed as Compound 1 hemi-galactarate dihydrate, dihydrate

Compound: C(=C\[C@H]1CCNC1)/c1cncnc1 [compound 1 hemi-galactarate dihydrate, (R)-5-((E)-2-pyrrolidin-3-ylvinyl)pyrimidine hemigalactarate dihydrate]
inhibition of the ACh-evoked current by sustained exposure (human alpha4beta2 nAChRs [1]): marked inhibition; also recorded: inhibits in a concentration-dependent manner
inhibition of the ACh-evoked current by sustained exposure [2]: marked inhibition; also recorded: inhibits in a concentration-dependent manner
desensitization / inhibition of the response by sustained agonist exposure (human alpha4beta2 nAChRs [3]; dihydrate): no long-lasting desensitization; also recorded: only a modest inhibition; also recorded: does not cause a long-lasting inhibition; also recorded: no long-lasting inhibition
recovery of the response after wash (human alpha4beta2 nAChRs [3]): almost full recovery
response after 18 hours recovery (human alpha4beta2 nAChRs [3]; after 1 hour exposure to 1 mM agonist): significant increase of the response
inhibition of the ACh-evoked current by sustained exposure (human alpha7 nAChRs): insensitive; also recorded: no significant inhibition
percent of the maximal ACh-evoked currents ([4]; ACh 1280 micromolar): about 94%
EC50 ([4]; read-out: EC50): 32.1 ± 2.16 µM
agonist character [4, 8]: almost as a full agonist
evoked currents larger than the maximal ACh responses (human nAChR alpha4beta2): about 2 fold
EC50 (human nAChR alpha4beta2; read-out: EC50): 48.8 ± 17.4 µM
effect on the subsequent ACh-evoked current (human nAChR alpha4beta2; dihydrate): enhanced
agonist character (human nAChR alpha4beta2; [8]): more potent agonist than ACh
EC50 (human nAChR alpha7; Example 2, value for compound 1 salt only an estimation): 1260 ± 500 µM
percent of the maximal ACh-evoked current (human nAChR alpha7; at 300 μM (300 micromolar) agonist, dihydrate): 24%
agonist character (human nAChR alpha7; dihydrate): poor agonist
agonist character (human nAChR alpha7; [8]): more potent agonist than ACh
percent of the maximal ACh-evoked currents (human nAChR alpha3beta4; ACh 1280 micromolar): about 94%
EC50 (human nAChR alpha3beta4; read-out: EC50): 42.1 ± 5.36 µM
agonist character (human nAChR alpha3beta4; [8]): almost as a full agonist
inhibition of the ACh-evoked current by sustained exposure (human alpha3beta4 nAChRs [5]; dihydrate): insensitive; also recorded: no significant inhibition

EC50 [4]: low micromolar range
agonist character [4]: partial agonist
EC50 (human nAChR alpha4beta2): low micromolar range
effect on the subsequent ACh-evoked current (human nAChR alpha4beta2): major inhibition
agonist character (human nAChR alpha4beta2): partial agonist
agonist character (human nAChR alpha4beta2; listed as Varenicline tartrate): very poor agonist
EC50 (human nAChR alpha3beta4): low micromolar range
agonist character (human nAChR alpha3beta4): partial agonist
Compound: varenicline tartrate [reference compound]
desensitization / inhibition of the response by sustained agonist exposure (human alpha4beta2 nAChRs [3]): profound inhibition; also recorded: major desensitization; also recorded: sustained inhibition; also recorded: major inhibition
recovery of the response after wash (human alpha4beta2 nAChRs [3]): could not be removed even after a three-hour wash period; also recorded: no significant recovery; also recorded: absence of recovery
recovery from desensitization (human alpha4beta2 nAChRs [6]): absence of recovery; also recorded: cannot be recovered even after 36 minutes wash
inhibition of the ACh-evoked current by sustained exposure (human alpha3beta4 nAChRs [5]): very modest effect; also recorded: no significant inhibition
recovery from desensitization (human alpha3beta4 nAChRs [7]; 300 μM, 36 minutes wash): absence of recovery; also recorded: cannot be recovered even after 36 minutes wash
response evoked by 300 μM agonist (human alpha3beta4 nAChRs [7]; applied during three minutes): larger current amplitude; also recorded: rather large response
